The source of these data is paper PMC12040169 (PLOS Biology, 2025).

This data set is described as follows: in vitro. The settings on record: human, hela cells, % viability.
Consider `COCCn1c(=O)n(CC=C(C)C)c2cccnc21` [CBK283534], for which the viability at 28.5 h, 10 µM turned out to be 92.1%.

With `CCOC(=O)NC(Nc1cccc(C)n1)(C(F)(F)F)C(F)(F)F` [CBK261343], the viability at 28.5 h, 10 µM worked out at 115%.

Turning to `COCc1nnc(Sc2cc(N3CCCC3)ncn2)s1` [CBK093746], the viability at 28.5 h, 10 µM worked out at 88.4%.

Turning to `Clc1ccc(COc2ccccc2OCc2ccccc2)s1` [CBK002766], the viability at 28.5 h, 10 µM worked out at 87.7%.

Regarding `COc1ccc(-c2cc(C(=O)Nc3ccc(O)cc3)cnc2-c2ccc(F)cc2)cc1` [CBK038026], the viability at 28.5 h, 10 µM is 95.5%.

As for `O=C1NCCCC12CCN(Cc1ccc(F)cc1)CC2` [CBK285345], the viability at 28.5 h, 10 µM was 83.1%.

In the case of `Cc1ccc(OCC(=O)Nc2ccc3c(c2)nc2n3CCOC2)cc1` [CBK288005], the viability at 28.5 h, 10 µM was determined as 102%.

For `CNCCc1nc(-c2ccc(F)cc2)c2cnccn12` [CBK035927], the viability at 28.5 h, 10 µM worked out at 90.7%.

For the compound `Cc1cc(C(=O)N2CCC(F)CC2)n[nH]1` [CBK200277], the viability at 28.5 h, 10 µM worked out at 109%.

`CC1CCc2noc(C3CCN(C(=O)c4ccnn4C)CC3)c2C1` (centres unmarked) [CBK285232]: the viability at 28.5 h, 10 µM worked out at 105%.

Turning to `CCN(CC)C(=O)CN(CCc1ccc(OC)c(OC)c1)C(=O)NCCN1CCOCC1` [CBK158734], the viability at 28.5 h, 10 µM amounted to 93.1%.

Turning to `COc1cccc(C(=O)Nc2ccc(NC(=O)C3CC=CCC3C(=O)O)cc2)c1` (centres unmarked) [CBK266316], the viability at 28.5 h, 10 µM worked out at 107%.

As for `COC(=O)c1ccc(Oc2nc(OC)cc(OC)n2)cc1` [CBK092221], the viability at 28.5 h, 10 µM was 113%.

As for `O=C(Nc1ccccc1N1CCN(C(=O)c2ccc(Cl)cc2)CC1)c1ccc(-c2cccc([N+](=O)[O-])c2)o1` [CBK266398], the viability at 28.5 h, 10 µM stood at 93.3%.

As to `O=C(NC1CC1)[C@H]1CN2CCC1C[C@@H]2Cn1cc(C2(O)CCCC2)nn1` (some centres unmarked) [CBK289092], the viability at 28.5 h, 10 µM was 82.1%.

As to `NS(=O)(=O)c1ccc(Cn2c(=O)[nH]c3ncc(-c4ccco4)nc32)cc1` [CBK064948], the viability at 28.5 h, 10 µM worked out at 96.8%.

With `CCOc1ccc(Cc2nnc(S)n2C2CC2)cc1OCC` [CBK288388], the viability at 28.5 h, 10 µM amounted to 66.4%.

Take `COC(=O)c1sc(NC(=O)C2CC2)c(C#N)c1C` [CBK026049]: the viability at 28.5 h, 10 µM was found to be 107%.

Regarding `O=C(c1ccccc1)N1C[C@H](c2ccc(F)cc2)[C@H]2CN(CCc3ccccc3)CC[C@H]21` [CBK286291], the viability at 28.5 h, 10 µM was 98.2%.

As for `CCc1ccc(C(=O)NC(Cc2c[nH]c3ccccc23)C(=O)O)cc1` (centres unmarked) [CBK269556], the viability at 28.5 h, 10 µM is 101%.

On to `COc1cccc(/C=N/NC(=O)C(=O)NCc2ccccn2)c1` [CBK262268], for which the viability at 28.5 h, 10 µM amounted to 84.5%.

With `O=C(CSc1ncnc2c1oc1ccccc12)NC1CCCC1` [CBK287788], the viability at 28.5 h, 10 µM was determined as 99.4%.

`CCCCc1cc(C[C@@H]2C[C@H](NS(C)(=O)=O)C2(C)C)no1` [CBK289702]: the viability at 28.5 h, 10 µM amounted to 105%.

Turning to `COc1ccc2c(c1)C1(CC(=O)N(CCOc3ccccc3)C1=O)C(=O)N2C` (centres unmarked) [CBK075168], the viability at 28.5 h, 10 µM was 95.2%.

`COc1c2c(nc3ccccc13)OC(C(C)(O)CO)C2` (centres unmarked) [CBK261506]: the viability at 28.5 h, 10 µM came out at 87.6%.

Regarding `Cc1noc(C)c1NC(=O)c1cccn1C` [CBK200304], the viability at 28.5 h, 10 µM stood at 101%.

Consider `O=C(CSc1nnc(-c2cccnc2)o1)c1ccc(Oc2ccccc2)cc1` [CBK266327], for which the viability at 28.5 h, 10 µM was 88.1%.

In the case of `c1nc(NCCCN2CCOCC2)c2c3c(sc2n1)CCCCC3` [CBK268236], the viability at 28.5 h, 10 µM worked out at 91.2%.

For `CCc1c(C)nc2ccccc2c1SC[C@H](NC(C)=O)C(=O)O` [CBK153459T], the viability at 28.5 h, 10 µM is 99.2%.

Consider `O=C(Nc1ccccc1)c1onc2c1CCCC2` [CBK058703], for which the viability at 28.5 h, 10 µM came to 108%.

Take `c1ccc(CCN2CCC(N3CCOCC3)CC2)cc1` [CBK261928]: the viability at 28.5 h, 10 µM was 85.2%.

As to `Cc1cccc2c3c([nH]c12)C1(CCN(CCCC#N)CC1)NCC3` [CBK039818], the viability at 28.5 h, 10 µM was 90.8%.

As for `Cc1oc2nc(SCC(=O)NCc3cccnc3)nc(N)c2c1C` [CBK266178], the viability at 28.5 h, 10 µM turned out to be 106%.

Consider `O=C(NCc1nnc(-c2cccs2)o1)c1cccc2ccccc12` [CBK284636], for which the viability at 28.5 h, 10 µM worked out at 82.1%.

Take `Fc1ccc(OCCN2CCC3(C2)OCCc2c3[nH]c3ccccc23)cc1` (centres unmarked) [CBK061787]: the viability at 28.5 h, 10 µM worked out at 86.7%.

For `C=C1S/C(=N\c2cc(Cl)cc(Cl)c2)NC1(CC)CC` [CBK009484], the viability at 28.5 h, 10 µM is 109%.

Turning to `O=C(O)CCn1cc(/C=C2\SC(=S)NC2=O)c(-c2cccc(Br)c2)n1` [CBK265287], the viability at 28.5 h, 10 µM was determined as 110%.

Turning to `COc1ccc(O[C@@H]2CCCC[C@@H]2N2CCCCC2)cc1` [CBK015661C], the viability at 28.5 h, 10 µM amounted to 90.6%.

On to `COc1ccc(CN2CCCC(c3nccnc3-c3cccc(NC(C)=O)c3)C2)cc1` (centres unmarked) [CBK286135], for which the viability at 28.5 h, 10 µM was 104%.

As to `COC(=O)Nc1ccc(S(=O)(=O)N2CCCC(C(=O)Nc3cccc(C(F)(F)F)c3)C2)cc1` (centres unmarked) [CBK265248], the viability at 28.5 h, 10 µM was determined as 92.3%.

`COc1ccc(S(=O)(=O)Nc2sccc2C#N)cc1` [CBK034732]: the viability at 28.5 h, 10 µM stood at 110%.

As for `Cc1cc2cc(CN(CC3CCCO3)C(=O)C3CC3)c(Cl)nc2cc1C` (centres unmarked) [CBK109881], the viability at 28.5 h, 10 µM came to 101%.

`O=C(COc1ccc(S(=O)(=O)N2CCOCC2)cc1)N1CCc2ccccc2C1` [CBK268350]: the viability at 28.5 h, 10 µM came to 92.1%.

Turning to `CC(C)Nc1nccnc1OCCOc1cccc(O)c1` [CBK115878], the viability at 28.5 h, 10 µM worked out at 101%.

For `CN1CCN(c2nc(-c3ccoc3)cnc2N)CC1` [CBK063362], the viability at 28.5 h, 10 µM amounted to 103%.

With `FC(F)(F)c1ccc(CN2CCCN(c3nccc(OCc4ccc(Cl)c(Cl)c4)n3)CC2)cc1` [CBK083949], the viability at 28.5 h, 10 µM is 94.5%.

In the case of `O=C(O)CCN1CCN(c2ccc(F)cc2)CC1` [CBK287262], the viability at 28.5 h, 10 µM worked out at 79.6%.

Consider `CNC(=O)C1CCN(S(=O)(=O)c2ccc(C(C)(C)C)cc2)CC1` [CBK051544], for which the viability at 28.5 h, 10 µM was 90.3%.

Take `c1ccc(Cn2cc(-c3cncn3CCCN3CCCCC3)cn2)cc1` [CBK281491]: the viability at 28.5 h, 10 µM was found to be 91.4%.

For `Cc1cc2oc(C(=O)Nc3sc4c(c3C(=O)NC3CCS(=O)(=O)C3)CCC(C)C4)c(C)c2cc1C` (centres unmarked) [CBK266351], the viability at 28.5 h, 10 µM was determined as 92.2%.

As for `O=C1CCN(C(=O)c2ccccn2)CCN1Cc1cccc(F)c1` [CBK284467], the viability at 28.5 h, 10 µM was 90.5%.

`O=c1[nH]cc(-c2ccccc2)cc1CNc1ccccc1-n1ccnc1` [CBK284769]: the viability at 28.5 h, 10 µM stood at 101%.

On to `Cc1nn(CC(=O)N2CCC(C)CC2)c(=O)c2cc3occc3n12` [CBK283654], for which the viability at 28.5 h, 10 µM turned out to be 89.8%.

As to `CCCCc1ccc(NC(=O)Nc2ccc3ccc(Cl)nc3n2)cc1` [CBK063259], the viability at 28.5 h, 10 µM came to 114%.

Take `COc1ccc(-c2nnc(SCC(=O)O)n2-c2cccc(C(F)(F)F)c2)cc1OC` [CBK268347]: the viability at 28.5 h, 10 µM turned out to be 88.7%.

With `COc1ccc(CC(=O)NCc2nc(-c3ccc(OC)cc3)no2)cc1` [CBK270043], the viability at 28.5 h, 10 µM came out at 92%.

Turning to `Cc1cccc(C)c1OCC(=O)Nc1ccccc1C(=O)N1CCOCC1` [CBK270096], the viability at 28.5 h, 10 µM is 91.2%.

On to `O=C(Cn1cccc(C(=O)NC2CCCCC2)c1=O)NC1(c2ccccc2)CCCC1` [CBK286059], for which the viability at 28.5 h, 10 µM stood at 85.1%.

Consider `Cc1ccc2nc3c(cc2c1)CNCC(C)O3` (centres unmarked) [CBK281941], for which the viability at 28.5 h, 10 µM is 85.9%.

Regarding `Cc1noc(C)c1CC(=O)NC(C)c1cc2cc(Cl)ccc2o1` (centres unmarked) [CBK281445], the viability at 28.5 h, 10 µM worked out at 90.1%.

Consider `COc1ccc(-c2nnc3c4ccccc4c(C)nn23)cc1S(=O)(=O)N1CCCCC1` [CBK266640], for which the viability at 28.5 h, 10 µM was 110%.

Take `Nc1ncc(-c2occc2C=O)nc1-c1ccc(F)c(Cl)c1` [CBK064005]: the viability at 28.5 h, 10 µM came to 101%.

For the compound `Cc1cccc(Cn2nc(C)c(NC(=O)c3ccncc3)c2C)c1` [CBK270126], the viability at 28.5 h, 10 µM was determined as 97.2%.

For `COc1cc(CN2Cc3cccc(C(=O)O)c3C2=O)cc(OC)c1OC` [CBK291227], the viability at 28.5 h, 10 µM was 108%.

As to `CC(C)(C)NC(=O)NCC(c1ccc[nH]1)C(F)(F)F` (centres unmarked) [CBK021595], the viability at 28.5 h, 10 µM was determined as 92.3%.

Take `COc1cccc(C(=O)NC[C@H]2CC[C@H](c3cc(C(N)=O)c4ccccc4n3)CC2)c1OC` [CBK285919]: the viability at 28.5 h, 10 µM worked out at 88.6%.

`Cc1ccnn1CCC(=O)N1CCCCC1c1nc2ccccc2[nH]1` (centres unmarked) [CBK282374]: the viability at 28.5 h, 10 µM was 105%.

In the case of `Fc1ccc2c3c([nH]c2c1)C1(CCN(CCCOCc2ccccc2)CC1)NCC3` [CBK039858], the viability at 28.5 h, 10 µM is 92.7%.

With `O=C(O)C1CCN(S(=O)(=O)c2ccc(F)cc2)CC1` [CBK100196], the viability at 28.5 h, 10 µM is 102%.

In the case of `Cc1cnc2c(c1)cc(C1CCOCC1)n2CC(=O)NC1CCCC1` [CBK284755], the viability at 28.5 h, 10 µM amounted to 103%.

In the case of `O=[N+]([O-])c1cc(C(F)(F)F)ccc1NC(CO)(CO)CO` [CBK261838], the viability at 28.5 h, 10 µM was 88.4%.

In the case of `COC(=O)Cn1c(=N)n(CCN2CCOCC2)c2ccccc21` [CBK262447B], the viability at 28.5 h, 10 µM worked out at 109%.

`COc1ccc(OC)c(N/C=C(/C#N)c2nc(-c3cc4c(ccc5ccccc54)oc3=O)cs2)c1` [CBK262991]: the viability at 28.5 h, 10 µM worked out at 109%.

`COC(=O)CCNc1n[nH]c(=O)[nH]c1=O` [CBK217927]: the viability at 28.5 h, 10 µM is 90.4%.

Turning to `Cc1cccc(OCC2CCCN(C(=O)Cn3cc(C)cn3)C2)c1` (centres unmarked) [CBK281531], the viability at 28.5 h, 10 µM was determined as 89.9%.

On to `Cc1nc(CN2[C@H]3CCCCC(=O)N[C@@]3(C)C[C@H]2c2cccc(C(F)(F)F)c2)cs1` [CBK285701], for which the viability at 28.5 h, 10 µM is 91.1%.

For the compound `Cc1cc(OCC(=O)NCc2cccnc2)cc(C)c1Cl` [CBK263658], the viability at 28.5 h, 10 µM was determined as 86.5%.

In the case of `Nc1ncc(-c2ccc(OC(F)(F)F)cc2)c2cccnc12` [CBK067594], the viability at 28.5 h, 10 µM stood at 98.7%.

With `Cc1ccc(NS(=O)(=O)c2ccc(OC(F)(F)F)cc2)nc1` [CBK043577], the viability at 28.5 h, 10 µM came out at 95.8%.

For `CN(Cc1ccc(Cl)c(F)c1)C(=O)c1cn[nH]c1C1CCCCN1` (centres unmarked) [CBK304742], the viability at 28.5 h, 10 µM worked out at 103%.

One may read the viability as a read-out of living cells in per cent, often relative to untreated cells.
